IC50 data for eight molecules are collected here from patent publication EP4722203A1, “3,4-DIHYDROPHTHALAZIN-1(2H)-ONE DERIVATIVE, AND PREPARATION METHOD THEREFOR AND USE THEREOF” (Academy of Military Medical Sciences, priority 2023, dated 2024).

Assay type in all cases: cell-based
The subject of one test is MV-4-11 cells. As to the kind of experiment: Antiproliferative activity, CCK-8 assay. The conditions noted are these: Homo sapiens, MV4-11; 144 hours incubation, CCK-8, absorbance at 450 nm. As to the method:
(§1) The cell models used in this example were human hematologic tumor cells, including NCI-H929, RPMI-8226, MV-4-11, U937 and WSU-DLCL-2. Some of the compounds of the present invention were selected to determine their inhibitory activity against the proliferation of NCI-H929, RPMI-8226, MV-4-11, U937, and WSU-DLCL-2 cells.
(§2) • ① The selected compounds were dissolved in DMSO to prepare 10 mM stock solutions. Compounds used within three months should be stored at room temperature in a desiccator; others could be stored at -20°C for long-term storage. • ② The above stock solutions and the positive reference compound pomalidomide were diluted with DMSO. Their initial concentrations were 10 µM. In the experiments of NCI-H929 and RPMI-8226 cells, 3-fold serial dilution with 11 concentration points was performed, with the lowest concentration of 0.00047 µM. The resulting solutions were shaken on a shaker for 5 minutes.
(§3) • ① The NCI-H929, RPMI-8226, MV-4-11, U937, and WSU-DLCL-2 cells in logarithmic growth phase were inoculated in a 96-well plate, 20,000 to 30,000 cells per well, and the plate was pre-cultured for 24 hours in an incubator (at 37°C and 5% CO2). • ② The culture medium in the plate was replaced, and the compounds and the positive control with corresponding concentrations were added to the plated at a volume of 50 µl. • ③ The plate was incubated for 144 hours in an incubator, then 15 µl of CCK-8 solution was added to each well, and incubated in the incubator for another 1-4 hours. • ④ The absorbance at 450 nm was measured using a microplate reader.
(§4) • ① Calculating % Inhibition: [formula] • ② Calculating IC50 value of compound and plotting dose-response curve: The IC50 value was calculated by fitting the % Inhibition and the logarithm of compound concentration to a nonlinear regression (dose response-variable slope) by using GraphPad 6.0. • Y = Bottom + (Top - Bottom) / (1 + 10^((LogIC50 - X) * HillSlope)) • X: log of inhibitor concentration; Y: % Inhibition.
(§5) After calculating % Inhibition, a dose-response curve was plotted with the logarithm of the test compound concentration as the x-axis and the average cell viability as the y-axis, and the IC50 value was obtained by fitting.
(Tetrazolium dyes change colour on reduction, which living cells bring about.)

In a further test the test system is NCI-H929 cells. As to the kind of experiment: Antiproliferative activity, CCK-8 assay. The note with it: Homo sapiens, 144 hours incubation, CCK-8, absorbance at 450 nm, read-out: IC50 (µM) H-929. As to the method:
as §1, §2, §3, §4, §5

For a further test, the system named is RPMI-8226 cells. As to the kind of experiment: Antiproliferative activity, CCK-8 assay. The note with it: Homo sapiens, 144 hours incubation, CCK-8, absorbance at 450 nm. As to the method:
as §1, §2, §3, §4, §5

A further test concerns U937 cells. As to the kind of experiment: Antiproliferative activity, CCK-8 assay. The note with it: Homo sapiens, U-937; 144 hours incubation, CCK-8, absorbance at 450 nm. As to the method: as §1, §2, §3, §4, §5
The next test deals with WSU-DLCL-2 cells. As to the kind of experiment: Antiproliferative activity, CCK-8 assay. The conditions noted are these: Homo sapiens, WSUDLCL2; 144 hours incubation, CCK-8, absorbance at 450 nm. The method, then:
as §1, §2, §3, §4, §5

Test [1] relates to NCI-H929-Lenalidomide-R cells. As to the kind of experiment: Antiproliferative activity against resistant cells, CCK-8 assay. The note with it: Homo sapiens, 144 hours incubation. The method, then: (§6) In this example, lenalidomide-resistant human multiple myeloma cells, including NCI-H929 (NCI-H929-Lenalidomide-R) and RPMI-8226 (RPMI-8226-Lenalidomide-R), and pomalidomide-resistant human multiple myeloma cells, including NCI-H929 (NCI-H929-pomalidomide-R) and RPMI-8226 (RPMI-8226-pomalidomide-R), were selected as cell models to determine the inhibitory activity of compound I-8 of the present invention against the proliferation of the resistant cells.
(§7) • ① I-8 was dissolved in DMSO to prepare a 10 mM stock solution. Compounds used within three months should be stored at room temperature in a desiccator; others could be stored at -20°C for long-term storage. • ② The I-8 stock solution and the reference compounds lenalidomide and pomalidomide were all diluted with DMSO. Their initial concentrations were 10 µM. In the experiments of lenalidomide-resistant human multiple myeloma cells (NCI-H929 (NCI-H929-Lenalidomide-R) and RPMI-8226 (RPMI-8226-Lenalidomide-R) and pomalidomide-resistant human multiple myeloma cells (NCI-H929 (NCI-H929-pomalidomide-R) and RPMI-8226 (RPMI-8226-pomalidomide-R), 3-fold serial dilution with 11 concentration points was performed, with the lowest concentration of […]. The resulting solutions were shaken on a shaker for 5 minutes.
(§8) • ① The NCI-H929-Lenalidomide-R, RPMI-8226-Lenalidomide-R, NCI-H929-pomalidomide-R, and RPMI-8226-pomalidomide-R cells in logarithmic growth phase were inoculated in a 96-well plate, 20,000 to 30,000 cells per well, and the plate was pre-cultured for 24 hours in an incubator (at 37°C and 5% CO2). • ® The culture medium in the plate was replaced, and the compounds and the positive controls with corresponding concentrations were added to the plated at a volume of 50 µL. • ③ The plate was incubated for 144 hours in an incubator, then 15 µL of CCK-8 solution was added to each well, and the plate was incubated in the incubator for another 1-4 hours. • ④ The absorbance at 450 nm was measured using a microplate reader.
(§9) • ① Calculating % Inhibition: [formula] • ② Calculating IC50 value of compound and plotting dose-response curve: The IC50 value was calculated by fitting the % Inhibition and the logarithm of compound concentration to a nonlinear regression (dose response-variable slope) by using GraphPad 6.0. Y = Bottom + (Top−Bottom)/(1+10^(∧)((LogIC50−X)*HillSlope)) [formula] X: log of inhibitor concentration; Y: % Inhibition.
as §5

In test [2] the test system is NCI-H929-pomalidomide-R cells. Described as above. The note with it: Homo sapiens, 144 hours incubation. The method, then:
as §6, §7, §8, §9, §5

In test [3] the test system is RPMI-8226-Lenalidomide-R cells. The test is described as above. The note with it: Homo sapiens, 144 hours incubation. The method, then: as §6, §7, §8, §9, §5
Test [4] has as its system RPMI-8226-pomalidomide-R cells. Described as above. The note with it: Homo sapiens, 144 hours incubation. The method, then: as §6, §7, §8, §9, §5

What is called IC50 is the midpoint of a concentration-inhibition curve.

Turning to `CN1Cc2c(NCc3ccc(CN4CCN(c5ccc(F)cc5)CC4)cc3)cccc2C(=O)N1C1CCC(=O)NC1=O` (stereo not drawn) [I-6], the IC50 in the test with MV-4-11 cells is 0.0311 µM; with NCI-H929 cells, 0.032 µM; in the test with RPMI-8226 cells, 1.26 µM; in the test on U937 cells it was 0.0522 µM; in the test with WSU-DLCL-2 cells it was 0.048 µM.
Taken in the same sequence, the figures for `CN1Cc2c(NCc3ccc(CN4CCN(c5ccc(C#N)cc5)CC4)cc3)cccc2C(=O)N1C1CCC(=O)NC1=O` (stereo not drawn) [I-7] were 0.0155 µM, 0.028 µM, 0.442 µM, 0.0348 µM and 0.053 µM.
Taken in the same sequence, the figures for `CN1Cc2c(cccc2[N+](=O)[O-])C(=O)N1C1CCC(=O)NC1=O` (stereo not drawn) [I-9, 3-(3-methyl-5-nitro-1-oxo-3,4-dihydrophthalazin-2(1H)-yl)piperidin-2,6-dione] were 0.39 µM, above 10 µM, 0.457 µM, above 10 µM and 0.23 µM.
For `CN1Cc2cc(N)ccc2C(=O)N1C1CCC(=O)NC1=O` (stereo not drawn) [I-10, 3-(6-amino-3-methyl-1-oxo-3,4-dihydrophthalazin-2(1H)-yl)piperidin-2,6-dione] the same measures were 0.215 µM, 5.85 µM, 0.38 µM, above 10 µM and 0.7 µM.
In the case of `CN1Cc2cc([N+](=O)[O-])ccc2C(=O)N1C1CCC(=O)NC1=O` (stereo not drawn) [I-11, 3-(3-methyl-6-nitro-1-oxo-3,4-dihydrophthalazin-2(1H)-yl)piperidin-2,6-dione], the IC50 stood at 0.294 µM with MV-4-11 cells; 2.54 µM in the test on NCI-H929 cells; 2.97 µM in the test on RPMI-8226 cells; 4.13 µM in the test on U937 cells; 2.65 µM with WSU-DLCL-2 cells.
Taken in the same sequence, the figures for `CN1Cc2c(N)cc(F)cc2C(=O)N1C1CCC(=O)NC1=O` (stereo not drawn) [I-12, 3-(5-amino-7-fluoro-3-methyl-1-oxo-3,4-dihydrophthalazin-2(1H)-yl)piperidin-2,6-dione] were 0.874 µM, above 10 µM, 0.499 µM, 2.3 µM and 3.69 µM.
Take `CN1Cc2c(cc(F)cc2[N+](=O)[O-])C(=O)N1C1CCC(=O)NC1=O` (stereo not drawn) [I-13, 3-(7-fluoro-3-methyl-5-nitro-1-oxo-3,4-dihydrophthalazin-2(1H)-yl)piperidin-2,6-dione]: the IC50 in the test on MV-4-11 cells is above 10 µM; with NCI-H929 cells, 0.85 µM; with RPMI-8226 cells it was 0.204 µM; in the test on U937 cells, 1.11 µM; with WSU-DLCL-2 cells, 0.88 µM.
With `Nc1cccc2c1CN(C1CCC(=O)NC1=O)C2=O` (stereo not drawn) [Lenalidomide], the IC50 in test [1], in test [2], in test [3] and in test [4] was above 100 µM throughout.
